In patent publication US8207108B2, “Stabilizing composition” (DSM IP Assets B.V., priority 2005, dated 2012):

Assays:
Format in all cases: physicochemical
[1] = Solubility of stabilizer in water/ethanol mixture as found in perfumes (appearance); conditions: 0.1 wt. % stabilizer in water/ethanol (96%) 53.9/46 wt. %
Text: An often occurring problem in the stabilization of colorants, dyes, fragrances and active ingredients is the solubility respectively the crystallization of the stabilizer/stabilizing composition in the final product form.

[2] = Color stabilization in blue liquid soap, irradiated with 100 MED, visual PANTONE color; conditions: irradiated 100 MED
Protocol: (§1) Basic formulation of the liquid soap:
(§2) The liquid soaps containing different colorants were irradiated with 100 MED and the color was determined visually according to Tints; PANTONE Color Tint Selector, The PANTONE Library of Color.
Blue liquid soap colored with FD&C Blue 1 W 092 (CI 42090)

[3] = Color stabilization in violet liquid soap, irradiated with 100 MED, visual PANTONE color; conditions: irradiated 100 MED
Protocol: as §1, §2

[4] = Color stabilization in green liquid soap, irradiated with 100 MED, visual PANTONE color; conditions: irradiated 100 MED
Protocol: as §1, §2
Green liquid soap colored with 0.9 ppm Green vent W 7003 (CI 61570)

[5] = 0.1 wt. % stabilizer, blank non irradiated 70% Tint

O=C(c1ccc(O)cc1O)c1ccc(O)cc1O [Benzophenon-2]
Appearance [1]: Precipitate

COc1ccc(C(=O)c2ccccc2)c(O)c1 [Benzophenon-3]
Appearance [1]: Turbid

O=C(c1ccccc1)c1ccc(O)cc1O [Benzophenone-1, benzophenone-1]
Index (PANTONE tint) ([2]; 0.1 wt. % stabilizer, blank non irradiated 50% Tint): 50% Tint
Color (PANTONE) ([2]; FD&C Blue 1 W 092, 0.1 wt. % stabilizer, blank non irradiated Pantone 3125C): Pantone 3125C
Index (PANTONE tint) [3, 5]: 30% Tint
Color (PANTONE) ([3]; 3.1 ppm Vert Turquise W 7003 and 0.5 ppm FD&C Red 40WO93, 0.1 wt. % stabilizer, blank non irradiated Pantone 494C): Pantone 495C

COc1cc(O)c(C(=O)c2ccccc2)cc1S(=O)(=O)O [Benzophenone-4, benzophenone-4]
Index (PANTONE tint) [4, 5]: 70% Tint
Color (PANTONE) ([4]; 0.9 ppm Green vent W 7003, 0.1 wt. % stabilizer, blank non irradiated Pantone 367C): Pantone 367C
